# Paper PMC6220303 (EMBO Molecular Medicine, 2018)
# Where “and” joins values, the source holds several entries; their conditions need not be identical. Equal entries are not always repeated. Where two headings read alike, the source gives them in different places.
# Assays:
# [1] = tested on: CHO cells (wild‐type APP); assay: Cellular Aβ40 release assay; assay type: cell-based; conditions: Cricetulus griseus, inhibition of Aβ40 release, six batches, each in triplicate
# Description: (§1) Cellular Aβ release assays were done in CHO cells stably transfected with human wild‐type and human APP were done as described (Neumann et al, 2015). Determinations of logD, pKa, and binding to brain homogenates were done internally at Novartis, Basel. Plasma protein binding was determined by equilibrium dialysis using diluted plasma from the corresponding species. MDR‐1‐MDCK cells were obtained from Prof. A. Berns, Netherlands Cancer Institute, Amsterdam NL, and bi‐directional transport measurements were done as described (Rueeger et al, 2011). Receptor binding assays were done against an internal receptor panel and externally at Ricerca Biosciences, Peitou, Taiwan. In vitro binding and cellular patch clamp assays for hERG were done at Preclinical Safety, Novartis, Basel.
# [2] = tested on: CHO cells (“Swedish” APP); assay: Cellular Aβ40 release assay; assay type: cell-based; conditions: Cricetulus griseus, inhibition of Aβ40 release, three batches, triplicates
# Description: as §1
# logD determination = assay type: physicochemical; conditions: partition coefficient octanol/buffer pH 6.8
# Description: as §1
# pKa determination = assay type: physicochemical; conditions: cyclic amidine
# Description: as §1
# dogs [3] = assay: Long-term toxicology studies in dogs; assay type: in vivo, dog
# Description: In long‐term toxicology studies, dose‐limiting non‐specific central nervous system (CNS) effects (including impaired mobility and tremor) occurred in dogs at ≥ 30 mg/kg/day and in male rats (adverse effects only observed at doses ≥ 500 mg/kg/day). […] After CNP520 withdrawal, all changes either trended toward being, or were, fully reversible. The organs that were affected by drug toxicity in these animal studies either were not relevant to the clinical target population or the toxicities occurred at a dose substantially higher than the efficacious clinical dose.
# In vivo animal toxicity studies were performed according to ICH guidance for industry M3(R2) and conformed to the Institutional Animal Care and Use Guidelines for the contract laboratory and sponsor. […] Recovery was assessed after a 12‐week treatment‐free period. Beagle dogs from Marshall BKU UK, 11 months of age, were given 0 (vehicle), 5, 15, or 30 mg/kg/day for 39 weeks. Vehicle consisted of 0.5% (w/v) methylcellulose (1,500 cPS) in 0.1% (v/v) polysorbate 80 (Tween®‐80) in reverse osmosis water. At necropsy, tissues were immersion fixed in 10% neutral‐buffered formalin or modified Davidson's solution and then processed by routine methods to paraffin block and hematoxylin–eosin (H&E)‐stained histologic slides.
# dogs [4] = assay: Cardiovascular safety pharmacology in dogs; assay type: in vivo, dog
# [5] = assay type: in vivo; conditions: rat, 15.4 mg/kg oral
# Aβ40 in rat brain tissue = assay: Aβ40 in rat brain and CSF after single oral dose; assay type: in vivo
# Description: (§2) Therefore, we measured Aβ40 in rat brain tissue 4 h after oral administration over a range of doses. […] In addition, the effect‐over‐time curves for brain and CSF almost completely superimposed, showing that Aβ pharmacodynamics in CSF mirrors very well that in brain tissue.
# Experiments were carried out in accordance with the guidelines of the Swiss Federal and Cantonal veterinary offices for care and use of laboratory animals or the Canadian Council on Animal Care (Ottawa, Canada), and the ARRIVE guidelines. Studies described in this report were approved by the Swiss Cantonal Veterinary Authority of Basel City, Switzerland, and performed according to animal license numbers BS‐2063, BS‐2077, and BS‐1094. Methods employed in PK/PD studies in rats and dogs are described (Neumann et al, 2015).
# (§3) Electrochemiluminescence immunoassays (Mesoscale Diagnostics, Rockville, MD, USA) were used to determine Aβ38, Aβ40, Aβ42, sAPPα, and sAPPβ. For studies in normal mice and rats, the endogenous Aβ40 was extracted from the brain homogenate with 1% Triton X‐100, and the 4G8‐based assay kit was used for quantification according to the manufacturer's instructions. CSF was collected from the cisterna magna and also analyzed using the 4G8 kit. For studies in dogs, CSF was collected via a ventricular port, and the 6E10‐based Mesoscale Diagnostics kit for Aβ was used. For studies in APP23 mice, Aβ40 and Aβ42 were determined after extraction with 70% formic acid and subsequent neutralization.
# Aβ40 and Aβ42 in dog CSF = Aβ40 and Aβ42 in dog CSF after single oral dose, PK/PD modeling; assay type: in vivo; conditions: Canis lupus familiaris
# Description: as §2, §3
# CSF Aβ40 = assay: Human CSF Aβ40, Phase IIa study of 3-month duration; assay type: in vivo; conditions: for reduction in CSF Aβ40 concentrations: 3 months, mean ± SEM
# Excerpt: All study participants underwent CSF sampling at baseline and at the end of treatment; in addition, we collected CSF at a number of intermediate time points (n = 2–7/time point).
# CSF Aβ38, Aβ40, Aβ42, sAPPα, and sAPPβ were quantified in human CSF with 0.2% (v/v) Tween®‐20 using validated sandwich‐based multiplexed electrochemiluminescence methods (MesoScale Discovery, […], MD, USA). […]
# Secondary • To assess the change from baseline of CSF Aβ concentrations (Aβ1-
# Objectives 38; Aβ1-40; Aβ1-42) in healthy elderly subjects over 13 weeks
# Lipoxygenase 5-LO = Lipoxygenase 5-LO (Homo sapiens, UniProt P09917); assay: Receptor panel; assay type: biochemical; conditions: read-out: Inhibition at 10 µM
# Description: as §1
# [6] = tested on: Calcium channel L-type, phenylalkylamine site; assay: Receptor panel binding; parameters: species or system Rat
# Description: as §1
# [7] = tested on: Imidazoline I2 receptor central; assay: Receptor panel binding; parameters: species or system Rat
# Description: as §1
# [8] = tested on: Sodium channel, binding site 2; assay: Receptor panel binding; parameters: species or system Rat
# Description: as §1
# Chain of Lipoxygenase 5-LO (P09917 whole entry): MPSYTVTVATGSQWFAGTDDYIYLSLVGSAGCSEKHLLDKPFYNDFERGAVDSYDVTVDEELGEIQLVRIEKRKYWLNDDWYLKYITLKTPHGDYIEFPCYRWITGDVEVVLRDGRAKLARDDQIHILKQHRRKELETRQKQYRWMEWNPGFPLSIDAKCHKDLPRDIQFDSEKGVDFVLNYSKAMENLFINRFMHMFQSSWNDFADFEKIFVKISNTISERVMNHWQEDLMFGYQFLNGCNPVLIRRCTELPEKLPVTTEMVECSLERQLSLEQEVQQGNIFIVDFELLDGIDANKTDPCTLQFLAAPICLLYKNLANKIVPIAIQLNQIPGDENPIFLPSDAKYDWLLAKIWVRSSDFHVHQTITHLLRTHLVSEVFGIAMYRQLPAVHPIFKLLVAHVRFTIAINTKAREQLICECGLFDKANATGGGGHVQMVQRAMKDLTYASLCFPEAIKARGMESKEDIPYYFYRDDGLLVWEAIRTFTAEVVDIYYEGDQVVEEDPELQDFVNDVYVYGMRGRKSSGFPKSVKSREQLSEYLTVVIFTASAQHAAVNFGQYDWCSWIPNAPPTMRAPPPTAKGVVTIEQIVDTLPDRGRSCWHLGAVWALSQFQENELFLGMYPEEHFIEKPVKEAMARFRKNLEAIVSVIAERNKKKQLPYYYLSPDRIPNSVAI
smiles,measurement,setting,value
C[C@@]1(c2nc(NC(=O)c3ncc(C(F)(F)F)cc3Cl)ccc2F)CO[C@@](C)(C(F)(F)F)C(N)=N1 [CNP520],IC50,[1],2.8 ± 0.2 nM
same,IC50,[2],44 ± 0.4 nM
same,logD,logD determination,3.5
same,pKa,pKa determination,7.2
same,No Adverse Effect Level,"dogs [3]; dog, authors' response in review file",30 mg/kg/day
same,"dose with dose-limiting non-specific CNS effects (impaired mobility, tremor)","dogs [3]; dogs, long-term toxicology",≥ 30 mg/kg/day
same,free plasma C max,dogs [4]; 200 mg/kg,0.23 µM
same,"effect on heart rate, ECG morphology, blood pressure","dogs [4]; doses up to 200 mg/kg, and repeat dose toxicology studies (2, 4, 13, 39 weeks)","no effect on heart rate, ECG morphology, or blood pressure"
same,peak concentration of unbound CNP520 in the brain,[5],50 nM
same,Aβ40 reduction in rat brain and CSF,Aβ40 in rat brain tissue; 24 h after single oral 30 μmol/kg (15.4 mg/kg) dose,~ 50%
same,ED50,"Aβ40 in rat brain tissue; Rattus norvegicus, read-out: ED50, oral dose required for 50% lowering of rat brain Aβ40, 4 h after oral administration",2.4 ± 0.31 mg/kg
same,reduction of Aβ40 in rat brain tissue compared to untreated controls,"Aβ40 in rat brain tissue; highest dose, 4 h after oral administration, mean ± SD",89.3 ± 4.5%
same,IC50,"Aβ40 and Aβ42 in dog CSF; read-out: IC50 in vivo (free ED50), unbound CNP520 in dog blood, PK/PD modeling estimate",3.3 ± 0.03 nM
same,IC50,"Aβ40 and Aβ42 in dog CSF; read-out: IC50 in vivo, total CNP520 in dog blood, PK/PD modeling estimate",103 ± 12.3 nM
same,reduction in CSF Aβ40 concentrations,CSF Aβ40; 2-mg daily dose,22.6 ± 2.1%
same,reduction in CSF Aβ40 concentrations,CSF Aβ40; 85-mg daily dose,90.7 ± 0.37%
same,ED50(free),"CSF Aβ40; corrected for plasma protein binding, human plasma",3.3 nM
same,ED50: total plasma CNP520 concentration at fifty percent reduction of CSF Aβ40,"CSF Aβ40; human plasma, Phase IIa",37.5 ± 2.9 ng/ml and 73.5 ± 5.8 nM
same,inhibition at 10 µM,Lipoxygenase 5-LO,66%
same,inhibition at 10 µM,[6],78%
same,inhibition at 10 µM,[7],61%
same,inhibition at 10 µM,[8],104%
